Experimental data: patent publication US20140116434A1, “Dry Powder Inhaler Compositions” (GLAXO GROUP LIMITED, priority 2011, published 2014)

Columns and labels:
subjects with COPD [1] = experiment: 28 day once-daily dry powder inhaler study in subjects with COPD; assay type: in vivo, human; conditions: 125, 250 and 500 mcg once-daily, 28 day period
Description: A further study evaluated the efficacy and safety of three doses (125 mcg, 250 mcg and 500 mcg) of 4-[hydroxy(diphenyl)methyl]-1-{2-[(phenylmethyl)oxy]ethyl}-1-azoniabicyclo[2.2.2]octane bromide administered once-daily via a dry powder inhaler over a 28 day period in subjects with COPD.

pre-clinical models = experiment: duration of action in vivo, administered directly to the lungs in pre-clinical models; parameters: species or system animals
[2] = tested on: healthy Japanese volunteers; experiment: single inhaled dose four-way crossover study, monotherapies and combination; assay type: in vivo, human; conditions: single inhaled doses, 500 mcg and/or 50 mcg
Description: A combination of 4-[hydroxy(diphenyl)methyl]-1-{2-[(phenylmethyl)oxy]ethyl}-1-azoniabicyclo[2.2.2]octane bromide and the compound of formula (II) as the triphenylacetate salt has been administered to sixteen healthy Japanese volunteers, aged 20 to 65, as part of a clinical trial to assess the safety, tolerability, pharmacokinetics and pharmacodynamics of single inhaled doses of 4-[hydroxy(diphenyl)methyl]-1-{2-[(phenylmethyl)oxy]ethyl}-1-azoniabicyclo[2.2.2]octane bromide and the compound of formula (II) triphenylacetate as monotherapies and in combination. […]
This clinical study in healthy Japanese volunteers, evaluated the effect of 4-[hydroxy(diphenyl)methyl]-1-{2-[(phenylmethyl)oxy]ethyl}-1-azoniabicyclo[2.2.2]octane bromide (500 mcg dose) and the compound of formula (II) triphenylacetate (50 mcg dose) administered as single inhaled doses and concurrently (4-[hydroxy(diphenyl)methyl]-1-{2-[(phenylmethyl)oxy]ethyl}-1-azoniabicyclo[2.2.2]octane bromide (500 mcg dose) and the compound of formula (II) triphenylacetate (50 mcg dose)) on lung function parameters. […] In this study FEV1 values were recorded. […]

muscarinic receptor = muscarinic receptor antagonism, studies in animal models and in humans
[3] = tested on: healthy volunteers and COPD patients; experiment: clinical pharmacology studies, single inhaled doses, plethysmography (sGaw, Raw) and spirometry (FEV1); assay type: in vivo, human
Protocol: Several clinical pharmacology studies have been conducted using 4-[hydroxy(diphenyl)methyl]-1-{2-[(phenylmethyl)oxy]ethyl}-1-azoniabicyclo[2.2.2]octane bromide in both healthy volunteers and COPD patients to investigate the safety, tolerability, pharmacokinetics and pharmacodynamics of this compound. The bronchodilatory effects and duration of action of single inhaled doses of this compound as measured by plethysmography (sGaw, Raw) and spirometry (FEV1) were assessed in some of the above noted studies.

human M3 receptor = human M3 receptor (Homo sapiens, UniProt P20309); experiment: reversibility at the human M3 receptor in vitro; assay type: binding
human M3 receptor, sequence (P20309 whole entry): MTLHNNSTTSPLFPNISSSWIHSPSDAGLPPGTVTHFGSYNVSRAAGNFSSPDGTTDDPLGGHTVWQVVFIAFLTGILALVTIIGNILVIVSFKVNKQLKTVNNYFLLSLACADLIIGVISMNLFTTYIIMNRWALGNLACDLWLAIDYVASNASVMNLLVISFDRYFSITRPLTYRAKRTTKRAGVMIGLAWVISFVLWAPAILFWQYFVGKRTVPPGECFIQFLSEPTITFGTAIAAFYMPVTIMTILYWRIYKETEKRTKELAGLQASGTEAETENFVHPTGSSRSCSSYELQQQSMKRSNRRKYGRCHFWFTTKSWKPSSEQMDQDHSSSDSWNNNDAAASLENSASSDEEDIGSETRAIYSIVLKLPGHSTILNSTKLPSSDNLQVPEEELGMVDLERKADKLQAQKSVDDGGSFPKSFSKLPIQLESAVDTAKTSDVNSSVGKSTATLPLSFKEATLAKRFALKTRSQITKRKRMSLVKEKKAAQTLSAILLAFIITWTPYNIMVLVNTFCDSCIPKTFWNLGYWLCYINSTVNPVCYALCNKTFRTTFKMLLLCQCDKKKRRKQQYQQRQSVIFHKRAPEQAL

subjects with COPD [4] = experiment: 14-day once-daily study in subjects with COPD; assay type: in vivo, human; conditions: 14-day treatment period
Description: In addition, this study confirmed that 4-[hydroxy(diphenyl)methyl]-1-{2-[(phenylmethyl)oxy]ethyl}-1-azoniabicyclo[2.2.2]octane bromide has a once-daily profile.

asthmatic patients = experiment: clinical pharmacology studies of the compound of formula (II) in asthmatic patients; assay type: in vivo, human; conditions: all doses tested
Description: The compound of formula (II) as the α-phenylcinnamate salt and the triphenylacetate salt has been studied in a number of clinical pharmacology studies, including single- and repeat-dose studies. In addition, these studies have evaluated the compound of formula (II) formulated with lactose and either cellobiose octaacetate or magnesium stearate.

[5] = assay type: in vivo, animal and human
[6] = tested on: subjects with persistent uncontrolled asthma; experiment: 8 week randomised, double-blind, placebo-controlled study in persistent uncontrolled asthma; assay type: in vivo, human
Protocol: In one such study, the safety and efficacy of four doses of 6α,9α-difluoro-17α-[(2-furanylcarbonyl)oxy]-11β-hydroxy-16α-methyl-3-oxo-androsta-1,4-diene-17β-carbothioic acid S-fluoromethyl ester (fluticasone furoate) in subjects with persistent uncontrolled asthma were evaluated. In this study, which was a randomised, double-blind, placebo-controlled, parallel group study, 598 patients received one of six treatments: fluticasone furoate (25, 50, 100 or 200 mcg) once daily, fluticasone propionate 100 mcg twice daily or placebo for 8 weeks. The primary endpoint was change from baseline in trough (pre-dose) forced expiratory volume in 1 second (FEV1) at Week 8. […] This study supports the use of fluticasone furoate (100 or 200 mcg once-daily) for the treatment of persistant uncontrolled asthma.

OC(c1ccccc1)(c1ccccc1)C12CC[N+](CCOCc3ccccc3)(CC1)CC2.[Br-] [4-[hydroxy(diphenyl)methyl]-1-{2-[(phenylmethyl)oxy]ethyl}-1-azoniabicyclo[2.2.2]octane bromide]
bronchodilation (subjects with COPD [1]): significant bronchodilation over twenty four hours | safety (subjects with COPD [1]): safe | duration of action in vivo (pre-clinical models): long duration of action | tolerability ([2]; dry powder inhalers): well tolerated | FEV1 values compared with placebo [2]: higher | muscarinic receptor antagonist profile (muscarinic receptor): long acting high-affinity pan-active muscarinic receptor antagonist | bronchodilatory effects (sGaw, Raw, FEV1) [3]: clinically relevant bronchodilation | duration of action [3]: 24 h | reversibility at the human M3 receptor (human M3 receptor): slow reversibility | pulmonary function compared to placebo (subjects with COPD [4]; 62.5, 125, 250, 500 and 1000 mcg once-daily): statistically significant improvements | trough FEV1 compared with open label tiotropium active control (18 mcg once-daily) (subjects with COPD [4]; all once-daily doses): numerically greater improvement

OCc1cc([C@@H](O)CNCCCCCCOCCOCc2c(Cl)cccc2Cl)ccc1O [compound of formula (II), 4-{(1R)-2-[(6-{2-[(2,6-dichlorobenzyl)oxy]ethoxy}hexyl)amino]-1-hydroxyethyl}-2-(hydroxymethyl)phenol]
trough (24-hour) FEV1 compared to placebo (asthmatic patients): statistically and clinically significant improvement | bronchodilation ([5]; animal and human studies): sustained bronchodilation over a 24 hour period | safety profile ([5]; in vivo): favourable safety profile

C[C@@H]1C[C@H]2[C@@H]3C[C@H](F)C4=CC(=O)C=C[C@]4(C)[C@@]3(F)[C@@H](O)C[C@]2(C)[C@@]1(OC(=O)c1ccco1)C(=O)SCF [fluticasone furoate, 6α,9α-difluoro-17α-[(2-furanylcarbonyl)oxy]-11β-hydroxy-16α-methyl-3-oxo-androsta-1,4-diene-17β-carbothioic acid S-fluoromethyl ester]
change from baseline in trough FEV1 relative to placebo ([6]; 50-200 mcg once daily, Week 8, p<0.05): significantly greater increases | increase in trough FEV1 from baseline relative to placebo ([6]; 100 mcg and 200 mcg once daily, Week 8): > 200 mL
